# Results from patent publication US12492173B2, “Herbicidal substituted N-tetrazolyl aryl carboxamides” (Bayer Aktiengesellschaft, priority 2019, dated 2025).
# Tested on: Cyperus esculentus
# Assay: Post-emergence herbicidal action, CYPES
# Format: in vivo
# Parameters: key: % herbicidal action vs untreated; 100 = plants died, 0 = like control
# Details: post-emergence, dosage 80 g/ha
# Summary of the method: (§1)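 Greenhouse post-emergence test: weeds sown in sandy loam were sprayed once at one leaf, 2 to 3 weeks from sowing, with aqueous WP or EC preparations carrying 0.2% wetting agent. Effect is scored visually after about 3 weeks.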
row,Compound,herbicidal action CYPES [%]
1,CCSCc1c(C(F)F)ccc(C(=O)Nc2nnnn2C)c1Cl [Example 1-323],80

# Tested on: Lolium multiflorum
# Assay: Pre-emergence herbicidal action, LOLMU
# Format: in vivo
# Details: dosage 320 g/ha, scored visually after 3 weeks vs untreated controls (100% = plants have died)
# From the text: 1. Pre-Emergence Herbicidal Action Against Harmful Plants Seeds of monocotyledonous and dicotyledonous weed plants and crop plants are laid out in sandy loam soil in wood-fiber pots and covered with soil. The compounds of the invention, formulated in the form of wettable powders (WP) or as emulsion concentrates (EC), are then applied to the surface of the covering soil in the form of an aqueous suspension or emulsion at a water application rate equating to 600 to 800 l/ha, with addition of 0.2% wetting agent. After the treatment, the pots are placed in a greenhouse and kept under good growth conditions for the trial plants. The damage to the test plants is scored visually after a test period of 3 weeks by comparison with untreated controls (herbicidal activity in percent (%): 100% activity=the plants have died, 0% activity=like control plants). […] The tables below illustrate, in an exemplary manner, the […] herbicidal action of the compounds according to the invention, the herbicidal activity being stated in percent. [table] In the experiments that follow, herbicidal action of numerous inventive compounds and the known compounds that are structurally closest from D1 (WO 2012/028579 A1) and D2 (WO 2018/202535 A1) were compared under the above-specified conditions by the pre-emergence and post-emergence method. The example numbers given in the tables relate to the compounds disclosed in the respective documents. In addition to the compounds disclosed in D1 and D2, the following compounds V-1 to V-14 that are encompassed by D1 or D2 but are not compounds specified therein were used in the comparative experiments: • V-1: 2-(methylsulfanyl)-3-(methylsulfinyl)-N-(1-methyl-1H-tetrazol-5-yl)-4-(trifluoromethyl)benzamide • V-2: 2-(methylsulfanyl)-3-(methylsulfonyl)-N-(1-methyl-1H-tetrazol-5-yl)-4-(trifluoromethyl)benzamide • V-3: 2,3-bis(ethylsulfanyl)-N-(1-methyl-1H-tetrazol-5-yl)-4-(trifluoromethyl)benzamide • V-4: 2-chloro-3-(ethylsulfanyl)-N-(1-methyl-1H-tetrazol-5-yl)-4-(trifluoromethyl)benzamide • V-5: 2-chloro-4-iodo-3-(methylsulfanyl)-N-(1-methyl-1H-tetrazol-5-yl)benzamide • V-6: 2-chloro-4-iodo-3-(methylsulfinyl)-N-(1-methyl-1H-tetrazol-5-yl)benzamide • V-7: 2-chloro-4-iodo-3-(methylsulfonyl)-N-(1-methyl-1H-tetrazol-5-yl)benzamide • V-8: 2-bromo-3-(methylsulfanyl)-N-(1-methyl-1H-tetrazol-5-yl)-4-(trifluoromethyl)benzamide • V-9: 2-bromo-3-(methylsulfinyl)-N-(1-methyl-1H-tetrazol-5-yl)-4-(trifluoromethyl)benzamide • V-10: 2-bromo-3-(methylsulfonyl)-N-(1-methyl-1H-tetrazol-5-yl)-4-(trifluoromethyl)benzamide • V-11: 2-bromo-3-(ethylsulfanyl)-N-(1-methyl-1H-tetrazol-5-yl)-4-(trifluoromethyl)benzamide • V-12: 2-bromo-3-(ethylsulfinyl)-N-(1-methyl-1H-tetrazol-5-yl)-4-(trifluoromethyl)benzamide • V-13: 2-bromo-3-(ethylsulfonyl)-N-(1-methyl-1-1H-tetrazol-5-yl)-4-(trifluoromethyl)benzamide • V-14: 2-cyclopropyl-3-(ethylsulfanyl)-N-(1-methyl-1H-tetrazol-5-yl)-4-(trifluoromethyl)benzamide Herbicidal Pre-Emergence Action: […]
row,Compound,herbicidal activity LOLMU [%]
1,CCCn1nnnc1NC(=O)c1ccc(C(F)(F)F)c(CS(C)(=O)=O)c1Cl [Example 3-298],90
2,CCn1nnnc1NC(=O)c1ccc(C(F)(F)F)c(C[S+]([O-])CC)c1Br (stereo not drawn) [Example 2-384],100
3,CCSCc1c(C(F)F)ccc(C(=O)Nc2nnnn2C)c1Cl [Example 1-323],100
4,Cn1nnnc1NC(=O)c1ccc(C(F)F)c(CS(C)(=O)=O)c1Cl [Example 1-322],100
5,CCn1nnnc1NC(=O)c1ccc(C(F)F)c(CS(C)(=O)=O)c1Cl [Example 2-322],100
6,CCn1nnnc1NC(=O)c1ccc(C(F)(F)F)c(C[S+](C)[O-])c1Cl (stereo not drawn) [Example 2-297],90
7,CCn1nnnc1NC(=O)c1ccc(C(F)F)c(CS(=O)(=O)CC)c1Cl [Example 2-325],100
8,CCCn1nnnc1NC(=O)c1ccc(C(F)(F)F)c(C[S+]([O-])CC)c1Br (stereo not drawn) [Example 3-384],90
9,CCn1nnnc1NC(=O)c1ccc(C(F)(F)F)c(CS(C)(=O)=O)c1Cl [Example 2-298],90
10,CCCn1nnnc1NC(=O)c1ccc(C(F)F)c(CSCC)c1Cl [Example 3-323],100
11,CCCn1nnnc1NC(=O)c1ccc(C(F)F)c(CS(C)(=O)=O)c1Cl [Example 3-322],80
12,CCSCc1c(C(F)(F)F)ccc(C(=O)Nc2nnnn2C)c1SCC [Example 1-182],90
13,CCSCc1c(C(F)(F)F)ccc(C(=O)Nc2nnnn2C)c1Br [Example 1-383],100

# Tested on: Stellaria media
# Assay: Pre-emergence herbicidal action, STEME
# Format: in vivo
# Parameters: key to Herbicidal action against STEME: % activity: 100 = plants have died, 0 = like control plants
# Details: comparative experiment, 20 g of a.i./ha
# Summary of the method: (§2)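 Seeds sown in sandy loam in pots and covered with soil; compounds formulated as WP or EC were sprayed onto the soil surface as aqueous suspension/emulsion at 600 to 800 l/ha water with 0.2% wetting agent. Greenhouse growth; visual damage scored after 3 weeks versus untreated controls (100% = plants died, 0% = like control).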
row,Compound,Herbicidal action against STEME
1,CCSCc1c(C(F)(F)F)ccc(C(=O)Nc2nnnn2C)c1SCC [Example 1-182],90

# Same assay, conditions: dosage 320 g/ha, scored visually after 3 weeks vs untreated controls (100% = plants have died)
row,Compound,herbicidal activity STEME [%]
1,CCCn1nnnc1NC(=O)c1ccc(C(F)(F)F)c(CS(C)(=O)=O)c1Cl [Example 3-298],90
2,CCn1nnnc1NC(=O)c1ccc(C(F)(F)F)c(C[S+]([O-])CC)c1Br (stereo not drawn) [Example 2-384],100
3,CCSCc1c(C(F)F)ccc(C(=O)Nc2nnnn2C)c1Cl [Example 1-323],100
4,Cn1nnnc1NC(=O)c1ccc(C(F)F)c(CS(C)(=O)=O)c1Cl [Example 1-322],100
5,CCn1nnnc1NC(=O)c1ccc(C(F)F)c(CS(C)(=O)=O)c1Cl [Example 2-322],100
6,CCn1nnnc1NC(=O)c1ccc(C(F)(F)F)c(C[S+](C)[O-])c1Cl (stereo not drawn) [Example 2-297],100
7,CCn1nnnc1NC(=O)c1ccc(C(F)F)c(CS(=O)(=O)CC)c1Cl [Example 2-325],100
8,CCCn1nnnc1NC(=O)c1ccc(C(F)(F)F)c(C[S+]([O-])CC)c1Br (stereo not drawn) [Example 3-384],90
9,CCn1nnnc1NC(=O)c1ccc(C(F)(F)F)c(CS(C)(=O)=O)c1Cl [Example 2-298],90
10,CCCn1nnnc1NC(=O)c1ccc(C(F)F)c(CSCC)c1Cl [Example 3-323],100
11,CCCn1nnnc1NC(=O)c1ccc(C(F)F)c(CS(C)(=O)=O)c1Cl [Example 3-322],100
12,CCSCc1c(C(F)(F)F)ccc(C(=O)Nc2nnnn2C)c1SCC [Example 1-182],90
13,CCSCc1c(C(F)(F)F)ccc(C(=O)Nc2nnnn2C)c1Br [Example 1-383],100

# Tested on: Veronica persica
# Assay: Post-emergence herbicidal action, VERPE
# Format: in vivo
# Parameters: key: % herbicidal action vs untreated; 100 = plants died, 0 = like control
# Details: Dosage 80 g/ha
# Summary of the method: as §1
row,Compound,herbicidal action VERPE
1,CCCn1nnnc1NC(=O)c1ccc(C(F)(F)F)c(CS(C)(=O)=O)c1Cl [Example 3-298],100
2,CCn1nnnc1NC(=O)c1ccc(C(F)F)c(CS(=O)(=O)CC)c1Cl [Example 2-325],90
3,CCCn1nnnc1NC(=O)c1ccc(C(F)(F)F)c(C[S+]([O-])CC)c1Br (stereo not drawn) [Example 3-384],100
4,CCn1nnnc1NC(=O)c1ccc(C(F)(F)F)c(CS(C)(=O)=O)c1Cl [Example 2-298],100
5,CCCn1nnnc1NC(=O)c1ccc(C(F)F)c(CSCC)c1Cl [Example 3-323],90
6,CCCn1nnnc1NC(=O)c1ccc(C(F)F)c(CS(C)(=O)=O)c1Cl [Example 3-322],80
7,CCSCc1c(C(F)(F)F)ccc(C(=O)Nc2nnnn2C)c1SCC [Example 1-182],100

# Same assay, conditions: comparative experiment, post-emergence, 5 g of a.i./ha
row,Compound,Herbicidal action against VERPE
1,CCSCc1c(C(F)(F)F)ccc(C(=O)Nc2nnnn2C)c1SCC [Example 1-182],100

# Same assay, conditions: comparative experiment, post-emergence, 20 g of a.i./ha
row,Compound,Herbicidal action against VERPE
1,CCSCc1c(C(F)(F)F)ccc(C(=O)Nc2nnnn2C)c1Br [Example 1-383],100

# Same assay, conditions: post-emergence, dosage 80 g/ha
row,Compound,herbicidal action VERPE [%]
1,CCn1nnnc1NC(=O)c1ccc(C(F)(F)F)c(C[S+]([O-])CC)c1Br (stereo not drawn) [Example 2-384],100
2,CCSCc1c(C(F)F)ccc(C(=O)Nc2nnnn2C)c1Cl [Example 1-323],100
3,Cn1nnnc1NC(=O)c1ccc(C(F)F)c(CS(C)(=O)=O)c1Cl [Example 1-322],100
4,CCn1nnnc1NC(=O)c1ccc(C(F)F)c(CS(C)(=O)=O)c1Cl [Example 2-322],90
5,CCn1nnnc1NC(=O)c1ccc(C(F)(F)F)c(C[S+](C)[O-])c1Cl (stereo not drawn) [Example 2-297],100
6,CCSCc1c(C(F)(F)F)ccc(C(=O)Nc2nnnn2C)c1Br [Example 1-383],100

# Tested on: Abutilon theophrasti
# Assay: Pre-emergence herbicidal action, ABUTH
# Format: in vivo
# Parameters: key to Herbicidal action against ABUTH: % activity: 100 = plants have died, 0 = like control plants
# Details: comparative experiment, 80 g of a.i./ha
# Summary of the method: as §2
row,Compound,Herbicidal action against ABUTH
1,CCSCc1c(C(F)(F)F)ccc(C(=O)Nc2nnnn2C)c1Br [Example 1-383],100

# Same assay, conditions: dosage 320 g/ha, scored visually after 3 weeks vs untreated controls (100% = plants have died)
row,Compound,herbicidal activity ABUTH [%]
1,CCCn1nnnc1NC(=O)c1ccc(C(F)(F)F)c(CS(C)(=O)=O)c1Cl [Example 3-298],100
2,CCn1nnnc1NC(=O)c1ccc(C(F)(F)F)c(C[S+]([O-])CC)c1Br (stereo not drawn) [Example 2-384],100
3,CCSCc1c(C(F)F)ccc(C(=O)Nc2nnnn2C)c1Cl [Example 1-323],100
4,Cn1nnnc1NC(=O)c1ccc(C(F)F)c(CS(C)(=O)=O)c1Cl [Example 1-322],100
5,CCn1nnnc1NC(=O)c1ccc(C(F)F)c(CS(C)(=O)=O)c1Cl [Example 2-322],100
6,CCn1nnnc1NC(=O)c1ccc(C(F)(F)F)c(C[S+](C)[O-])c1Cl (stereo not drawn) [Example 2-297],100
7,CCn1nnnc1NC(=O)c1ccc(C(F)F)c(CS(=O)(=O)CC)c1Cl [Example 2-325],100
8,CCCn1nnnc1NC(=O)c1ccc(C(F)(F)F)c(C[S+]([O-])CC)c1Br (stereo not drawn) [Example 3-384],100
9,CCn1nnnc1NC(=O)c1ccc(C(F)(F)F)c(CS(C)(=O)=O)c1Cl [Example 2-298],100
10,CCCn1nnnc1NC(=O)c1ccc(C(F)F)c(CSCC)c1Cl [Example 3-323],100
11,CCCn1nnnc1NC(=O)c1ccc(C(F)F)c(CS(C)(=O)=O)c1Cl [Example 3-322],100
12,CCSCc1c(C(F)(F)F)ccc(C(=O)Nc2nnnn2C)c1SCC [Example 1-182],100
13,CCSCc1c(C(F)(F)F)ccc(C(=O)Nc2nnnn2C)c1Br [Example 1-383],100
